Experiments:
Type in all cases: biochemical
[1] = target: T1, NMDAR2A expressing HEK cell membranes (Homo sapiens, UniProt Q12879); test: NMDAR agonist assay, [3H]MK-801 binding, NMDAR2A; conditions: 50 μM glutamate; for EC50: [3H]MK-801 binding, read-out: NMDAR2A: log EC50 (converted)
T1 construct: expressed in transfected cells; host or cells: HEK cells (membrane extract)
Procedure: (§1) (nonequilibrium conditions).
(§2) The baseline value was determined from the best fit curve of the DPM values modeled using the GraphPad program and the log(agonist) vs. response(three parameters) algorithm was then subtracted from all points in the dataset.

[2] = target: T2, NMDAR2B expressing HEK cell membranes (Homo sapiens, UniProt Q13224); test: NMDAR agonist assay, [3H]MK-801 binding, NMDAR2B; conditions: 50 μM glutamate; for EC50: [3H]MK-801 binding, read-out: NMDAR2B log EC50 (converted)
T2 construct: expressed in transfected cells; host or cells: HEK cells (membrane extract)
Procedure: as §1, §2

[3] = target: T3, NMDAR2B expressing HEK cell membranes (Homo sapiens, UniProt Q05586+Q13224); test: NMDAR agonist assay, [3H]MK-801 binding, NMDAR2B; conditions: 50 μM glutamate; for EC50: [3H]MK-801 binding, read-out: NMDAR2B log EC50 (converted); for Emax: relative to 1 mM glycine, read-out: NMDAR2B: % maximal [3H]MK-801 binding relative to 1 mM glycine
T3 construct: expressed in transfected cells; host or cells: HEK cells (membrane extract)
Procedure: as §1, §2

[4] = target: T4, NMDAR2A expressing HEK cell membranes (Homo sapiens, UniProt Q05586+Q12879); test: NMDAR agonist assay, [3H]MK-801 binding, NMDAR2A; conditions: 50 μM glutamate; [3H]MK-801 binding; read-out: NMDAR2A: log EC50 (converted)
T4 construct: expressed in transfected cells; host or cells: HEK cells (membrane extract)
Procedure: as §1, §2

T4 sequence (Q12879 23-1464, other chains not shown): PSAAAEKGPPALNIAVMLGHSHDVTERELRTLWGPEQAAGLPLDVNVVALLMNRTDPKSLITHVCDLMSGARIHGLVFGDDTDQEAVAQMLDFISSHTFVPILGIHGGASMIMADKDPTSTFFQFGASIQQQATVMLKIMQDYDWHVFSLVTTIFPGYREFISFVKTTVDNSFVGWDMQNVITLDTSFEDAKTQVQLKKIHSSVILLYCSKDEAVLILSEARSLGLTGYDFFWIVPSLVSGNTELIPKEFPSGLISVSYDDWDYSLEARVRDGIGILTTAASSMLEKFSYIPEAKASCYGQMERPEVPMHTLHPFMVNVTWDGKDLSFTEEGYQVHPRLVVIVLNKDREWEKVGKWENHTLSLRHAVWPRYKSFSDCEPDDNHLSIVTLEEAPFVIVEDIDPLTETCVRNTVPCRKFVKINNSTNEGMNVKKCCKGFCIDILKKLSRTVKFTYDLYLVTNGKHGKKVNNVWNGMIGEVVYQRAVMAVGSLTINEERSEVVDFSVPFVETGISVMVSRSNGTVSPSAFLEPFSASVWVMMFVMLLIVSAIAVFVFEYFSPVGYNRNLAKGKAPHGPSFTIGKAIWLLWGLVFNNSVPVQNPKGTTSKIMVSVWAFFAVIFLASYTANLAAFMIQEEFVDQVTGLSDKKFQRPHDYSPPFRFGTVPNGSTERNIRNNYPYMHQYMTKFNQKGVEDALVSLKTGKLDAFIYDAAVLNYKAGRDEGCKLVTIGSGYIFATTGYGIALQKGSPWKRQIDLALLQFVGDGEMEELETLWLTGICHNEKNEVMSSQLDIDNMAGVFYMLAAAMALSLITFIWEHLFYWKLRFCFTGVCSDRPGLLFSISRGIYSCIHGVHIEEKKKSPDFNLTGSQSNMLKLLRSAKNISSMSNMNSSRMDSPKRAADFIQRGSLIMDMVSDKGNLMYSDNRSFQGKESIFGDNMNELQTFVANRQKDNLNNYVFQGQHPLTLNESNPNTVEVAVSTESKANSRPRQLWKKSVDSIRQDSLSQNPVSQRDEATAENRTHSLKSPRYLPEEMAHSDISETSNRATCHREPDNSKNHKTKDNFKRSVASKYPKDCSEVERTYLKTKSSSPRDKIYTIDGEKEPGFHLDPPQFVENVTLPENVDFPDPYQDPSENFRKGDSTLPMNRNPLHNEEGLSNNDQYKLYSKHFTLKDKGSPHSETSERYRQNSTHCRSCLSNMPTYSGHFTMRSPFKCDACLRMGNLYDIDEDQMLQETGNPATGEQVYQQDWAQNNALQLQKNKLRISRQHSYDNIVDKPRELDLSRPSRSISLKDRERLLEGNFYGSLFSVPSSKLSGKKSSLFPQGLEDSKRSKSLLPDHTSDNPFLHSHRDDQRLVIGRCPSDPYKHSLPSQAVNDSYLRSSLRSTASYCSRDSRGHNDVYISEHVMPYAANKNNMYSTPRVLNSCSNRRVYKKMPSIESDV
T1 sequence (Q12879 23-1464, other chains not shown): as above
T3 sequence (Q13224 27-1484, other chains not shown): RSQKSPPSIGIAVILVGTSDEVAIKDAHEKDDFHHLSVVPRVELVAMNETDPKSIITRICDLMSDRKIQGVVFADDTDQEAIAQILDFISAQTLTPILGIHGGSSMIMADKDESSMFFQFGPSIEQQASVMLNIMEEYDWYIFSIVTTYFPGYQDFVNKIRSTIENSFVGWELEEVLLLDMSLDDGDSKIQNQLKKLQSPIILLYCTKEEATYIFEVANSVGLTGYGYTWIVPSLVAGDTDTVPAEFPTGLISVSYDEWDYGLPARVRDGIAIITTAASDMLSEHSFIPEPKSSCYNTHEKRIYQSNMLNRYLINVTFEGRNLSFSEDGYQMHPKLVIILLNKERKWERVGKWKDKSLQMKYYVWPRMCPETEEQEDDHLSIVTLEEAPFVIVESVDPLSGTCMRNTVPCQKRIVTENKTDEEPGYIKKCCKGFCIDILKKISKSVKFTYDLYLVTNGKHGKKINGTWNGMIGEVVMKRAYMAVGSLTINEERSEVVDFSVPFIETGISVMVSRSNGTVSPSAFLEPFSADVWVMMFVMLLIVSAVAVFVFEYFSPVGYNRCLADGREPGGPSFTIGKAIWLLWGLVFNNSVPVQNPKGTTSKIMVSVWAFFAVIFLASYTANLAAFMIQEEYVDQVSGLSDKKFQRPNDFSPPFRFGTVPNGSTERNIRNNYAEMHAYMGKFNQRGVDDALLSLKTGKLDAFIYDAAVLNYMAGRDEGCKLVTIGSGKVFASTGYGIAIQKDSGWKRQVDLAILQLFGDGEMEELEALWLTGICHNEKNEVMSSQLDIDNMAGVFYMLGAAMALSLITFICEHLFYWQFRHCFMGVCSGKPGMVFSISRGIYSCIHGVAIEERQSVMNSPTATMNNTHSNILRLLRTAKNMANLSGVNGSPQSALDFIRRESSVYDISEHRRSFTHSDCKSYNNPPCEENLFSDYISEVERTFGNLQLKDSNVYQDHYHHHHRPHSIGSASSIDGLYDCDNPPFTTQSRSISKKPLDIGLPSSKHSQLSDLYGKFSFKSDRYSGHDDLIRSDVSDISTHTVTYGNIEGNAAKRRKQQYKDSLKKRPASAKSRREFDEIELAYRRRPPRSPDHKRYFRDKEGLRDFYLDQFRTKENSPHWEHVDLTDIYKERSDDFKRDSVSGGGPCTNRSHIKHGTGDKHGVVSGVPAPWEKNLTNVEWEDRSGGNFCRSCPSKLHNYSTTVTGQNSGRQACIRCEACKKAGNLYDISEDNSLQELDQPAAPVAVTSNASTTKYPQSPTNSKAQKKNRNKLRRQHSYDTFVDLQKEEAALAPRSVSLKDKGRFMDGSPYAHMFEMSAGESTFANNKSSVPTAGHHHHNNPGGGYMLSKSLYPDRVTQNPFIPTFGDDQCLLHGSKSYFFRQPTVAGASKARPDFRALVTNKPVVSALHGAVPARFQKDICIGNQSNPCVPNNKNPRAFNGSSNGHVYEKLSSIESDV

| SMILES | NMDAR2A: % maximal [3H]MK-801 binding relative to 1 mM glycine [1] | EC50 [2] [nM] | NMDAR2B: % maximal [3H]MK-801 binding relative to 1 mM glycine [2] | EC50 [1] [nM] | EC50 [3] [nM] | EC50 [4] [nM] | Emax [3] [%] |
| --- | --- | --- | --- | --- | --- | --- | --- |
| CC(C)(C)OC(=O)N1C2(CCC13CNC3=O)CNC2=O (single isomer, unassigned) [AA-2, tert-butyl 1,7-dioxo-2,5,8-triazadispiro[3.1.36.24]undecane-5-carboxylate] | + (<100%=+) | > 100 | − (−=0) | – | – | – | – |
| CC(C)(C)OC(=O)N1C2(CCC13CNC3=O)CNC2=O (single isomer, unassigned) [AA-3, tert-butyl 1,7-dioxo-2,5,8-triazadispiro[3.1.36.24]undecane-5-carboxylate] | − (−=0) | > 100 | − (−=0) | > 100 | – | – | – |
| CC(C)C(=O)N1C2(CCC13CNC3=O)CNC2=O (single isomer, unassigned) [AI, 5-isobutyryl-2,5,8-triazadispiro[3.1.36.24]undecane-1,7-dione] | + (<100%=+) | – | − (−=0) | < 1 | > 100 | – | – |
| C[C@@H](O)[C@H](NC(=O)C1CCC2(CNC2=O)N1Cc1ccccc1)C(N)=O (single isomer, unassigned) [AL-2] | + (<100%=+) | – | − (−=0) | – | > 100 | – | – |
| CC(C)CN1C(C(=O)N[C@H](C(N)=O)[C@@H](C)O)CCC12CNC2=O (single isomer, unassigned) [BB] | + (<100%=+) | – | + (<100%=+) | – | < 1 | – | – |
| C[C@@H](O)[C@H](NC(=O)C1CCC2(CNC2=O)N1C)C(N)=O (single isomer, unassigned) [BD] | + (<100%=+) | < 1 | + (<100%=+) | – | – | < 1 | – |
| CC(C)(C)OC(=O)N1C(C(N)=O)CCC12CN(OCc1ccccc1)C2=O (single isomer, unassigned) [BG, tert-butyl 2-(benzyloxy)-6-carbamoyl-1-oxo-2,5-diazaspiro[3.4]octane-5-carboxylate] | + (<100%=+) | – | – | – | – | < 1 | < 100 |
| C[C@@H](O)[C@H](NCC1CCC2(CN(OCc3ccccc3)C2=O)N1C(=O)OC(C)(C)C)C(=O)N(C)C (single isomer, unassigned) [BQ] | − (−=0) | – | – | – | < 1 | > 100 | < 100 |
| C[C@@H](O)[C@H](NC1CN(C(=O)OC(C)(C)C)C2(CNC2=O)C1)C(N)=O (single isomer, unassigned) [CH] | − (−=0) | > 100 | − (−=0) | – | – | > 100 | – |
| CC(O)C(NCC1CCC2(CNC2=O)N1)C(N)=O (single isomer, unassigned) [CN] | ++ (>100%=++) | < 1 | + (<100%=+) | < 1 | – | – | – |
| CNC(=O)C(NCC1CCC2(CNC2=O)N1)C(C)O (single isomer, unassigned) [CQ] | − (−=0) | – | – | – | < 1 | > 100 | > 100 |
| CNC(=O)C(NCC1CCC2(CNC2=O)N1)C(C)O (single isomer, unassigned) [CR] | + (<100%=+) | < 1 | ++ (>100%=++) | – | – | < 1 | – |
| CC(O)C(C(N)=O)N(C)CC1CCC2(CNC2=O)N1 (single isomer, unassigned) [CU] | − (−=0) | – | – | – | – | > 100 | > 100 |
| CC(C)CN1C(C(N)=O)CCC12CNC2=O (single isomer, unassigned) [DD, 5-isobutyl-1-oxo-2,5-diazaspiro[3.4]octane-6-carboxamide] | + (<100%=+) | < 1 | + (<100%=+) | < 1 | – | – | – |
| NC(=O)C1CCC2(CNC2=O)N1Cc1ccccc1 (single isomer, unassigned) [DF, 5-benzyl-1-oxo-2,5-diazaspiro[3.4]octane-6-carboxamide] | – | < 1 | – | < 1 | – | – | – |
| NC(=O)C1CCC2(CNC2=O)N1Cc1ccc(F)cc1 (single isomer, unassigned) [DH, 5-(4-fluorobenzyl)-1-oxo-2,5-diazaspiro[3.4]octane-6-carboxamide] | + (<100%=+) | – | ++ (>100%=++) | < 1 | < 1 | – | – |
| O=C1NCC12CN(Cc1ccc(F)cc1)C1(CNC1=O)C2 (single isomer, unassigned) [DK, 10-(4-fluorobenzyl)-2,8,10-triazadispiro[3.1.3^6.2^4]undecane-1,7-dione] | + (<100%=+) | – | – | – | < 1 | < 1 | < 100 |
| O=C1NCC12CN(Cc1ccc(F)cc1)C1(CNC1=O)C2 (single isomer, unassigned) [DL, 10-(4-fluorobenzyl)-2,8,10-triazadispiro[3.1.3^6.2^4]undecane-1,7-dione] | − (−=0) | < 1 | + (<100%=+) | – | – | > 100 | – |
| CC(C)(C)OC(=O)N1C2(CCC13CNC3=O)CNC2=O (stereo not shown) [AA-1, tert-butyl 1,7-dioxo-2,5,8-triazadispiro[3.1.36.24]undecane-5-carboxylate] | − (−=0) | – | – | – | > 100 | > 100 | 0 |

Further lines, results first:

| NMDAR2A: % maximal [3H]MK-801 binding relative to 1 mM glycine [1] | EC50 [2] [nM] | NMDAR2B: % maximal [3H]MK-801 binding relative to 1 mM glycine [2] | EC50 [1] [nM] | EC50 [3] [nM] | EC50 [4] [nM] | Emax [3] [%] | SMILES |
| --- | --- | --- | --- | --- | --- | --- | --- |
| – | > 100 | – | > 100 | – | – | – | CNC(=O)[C@@H](NCC1CCC2(CN(OCc3ccccc3)C2=O)N1C(=O)OC(C)(C)C)[C@@H](C)O (single isomer, unassigned) [BN] |
| + (<100%=+) | – | ++ (>100%=++) | – | – | < 1 | – | C[C@@H](O)[C@H](NCC1CCC2(CN(OCc3ccccc3)C2=O)N1C(=O)OC(C)(C)C)C(=O)N(C)C (single isomer, unassigned) [BR] |
| − (−=0) | – | – | – | < 1 | > 100 | < 100 | CC(O)C(NCC1CCC2(CN(OCc3ccccc3)C2=O)N1)C(N)=O (single isomer, unassigned) [CK] |
| + (<100%=+) | < 1 | + (<100%=+) | – | – | < 1 | – | CC(O)C(NCC1CCC2(CN(OCc3ccccc3)C2=O)N1)C(N)=O (single isomer, unassigned) [CL] |
| – | < 1 | – | < 1 | – | – | – | CNC(=O)C(NCC1CCC2(CN(OCc3ccccc3)C2=O)N1)C(C)O (single isomer, unassigned) [CP] |
| − (−=0) | < 1 | + (<100%=+) | – | – | > 100 | – | CC(O)C(C(N)=O)N(C)CC1CCC2(CN(OCc3ccccc3)C2=O)N1 (single isomer, unassigned) [CS] |
| + (<100%=+) | – | – | – | < 1 | < 1 | < 100 | CC(O)C(C(N)=O)N(C)CC1CCC2(CN(OCc3ccccc3)C2=O)N1 (single isomer, unassigned) [CT] |
| + (<100%=+) | < 1 | ++ (>100%=++) | < 1 | – | – | – | CNC(=O)C(C(C)O)N(C)CC1CCC2(CN(OCc3ccccc3)C2=O)N1 (single isomer, unassigned) [CX] |
| – | – | – | < 1 | – | – | – | NC(=O)C1CCC2(CN(OCc3ccccc3)C2=O)N1 (single isomer, unassigned) [CZ, 2-(benzyloxy)-1-oxo-2,5-diazaspiro[3.4]octane-6-carboxamide] |
